These results are taken from publication PMC11894060, “Accelerating discovery of bioactive ligands with pharmacophore-informed generative models” (Nature Communications, 2025).

Where two headings read alike, the source gives them in different places. Bounds are passed on as bounds.

Series [1] deals with T1, PLK1 (Homo sapiens, UniProt P53350). Also noted: method as in ExCAPE-DB [85]. The settings on record: known PLK1 ligands carrying the core substructures; ref ExCAPE-DB [85]; cited from earlier work.
Series [2] addresses T2, PLK2 (Homo sapiens, UniProt Q9NYY3). Description: PLK2 ADP-Glo kinase assay (selectivity). The class given is biochemical. The settings on record: read-out: IC50 against PLK2. The procedure:
(§1) In vitro kinase activity assays were conducted through ADP-Glo assay services provided by Conradbio (Conradbio, China). The protocol for the PLK1 assay is described as follows (protocols for other kinases are very similar). Enzyme, substrate, ATP, and compounds were diluted in a Kinase Buffer composed of 40 mM Tris (pH 7.5), 20 mM MgCl2, 0.1 mg/ml BSA, and 50 μM DTT. In a 384-well low-volume plate, 1 μl of the compound or 5% dimethyl sulfoxide (DMSO), 2 μl of PLK1 enzyme (15 ng/well), and 2 μl of substrate/ATP mix (final concentration: 20 μM ATP, 0.2 μg/μl Casein) were added to each well. The plate was then incubated at 25 °C for 60 min to allow for kinase activity. Following the enzymatic reaction, 5 μl of ADP-Glo^TM Reagent was added to each well, and the plate was incubated at 25 °C for an additional 40 min. Subsequently, 10 μl of Kinase Detection Reagent was added, and the plate was incubated for a final 30 min at 25 °C. Luminescence was recorded with an integration time of 0.5 s.
(§2) IC50 values were calculated using Prism 8 by fitting the following equation:4 Y=Bottom+(Top−Bottom)/(1+10^(logIC50−X)×HillSlope), where X is a log of concentration, Y is a response, and top and bottom are the responses of controls. Each assay was repeated at least three times, and we computed the mean and standard deviation for the values.
A general note: ADP-Glo first removes unused ATP, then detects ADP through luciferase.

The target in series [3] is T3, PLK3 (Homo sapiens, UniProt Q9H4B4). The experiment in a line: PLK3 ADP-Glo kinase assay (selectivity). The class given is biochemical. As to conditions: read-out: IC50 against PLK3. The protocol:
as §1, §2

Series [4] concerns the target FAK kinase (Homo sapiens, UniProt Q05397). The experiment in a line: FAK ADP-Glo kinase assay (selectivity). The settings on record: for IC50: ADP-Glo assay, read-out: IC50 against FAK; for selectivity for PLK1 over FAK: FAK IC50 versus PLK1 IC50. The class given is biochemical. The procedure: as §1, §2
Series [5] addresses T1, PLK1. The experiment in a line: PLK1 kinase ADP-Glo assay (in vitro kinase activity). The settings on record: for selectivity for PLK1 compared to other Plks (in words): PLK1 vs PLK2/PLK3. Also noted: 2 μl of PLK1 enzyme (15 ng/well). The format is biochemical. The protocol:
as §1, §2

Series [6] relates to HCT116 cell line. The experiment in a line: CellTiter-Glo cell viability assay on HCT116. The format is cell-based, human. The protocol: Cell viability assays were conducted through CellTiter-Glo assay services provided by Conradbio (Conradbio, China). The protocol is briefly described as follows. Firstly, when the cell confluence reaches 80%, cells are collected and counted. Subsequently, a cell suspension is diluted, and 80 μl of the suspension is seeded into each well of a 96-well U-bottom plate. The plate is then placed in a 37 °C, 5% CO2 incubator for optimal cell growth. After 24 h of incubation, a 20 μl aliquot of a diluted compound solution is added to specific wells on the plate, 0.5% dimethyl sulfoxide (DMSO) is used as a negative control. Following the compound addition, the plate is returned to the incubator for an additional day. Upon completion of the incubation period, the CellTiter-Glo assay (Promega) is performed according to the manufacturer’s manual. This assay is designed to measure cell viability based on luminescence, providing insights into the impact of the compounds on cellular health. Finally, data calculation is carried out to analyze the results of the CTG assay using Prism 8.
Background: ATP-based viability assays read luminescence as a measure of living cells.

The nature of series [7]: Preliminary in vivo pharmacokinetic experiments in mice.
Series [8] addresses T1, PLK1. The experiment in a line: In-house enzymatic activity (peer review response). The class given is biochemical. The settings on record: Onvansertib vs. Volasertib.
For series [9], the target named is T2, PLK2. The experiment in a line: Activity against PLK2 (peer review response). The class given is biochemical.
Series [10] deals with T3, PLK3. Description: Activity against PLK3 (peer review response). The class given is biochemical. As to conditions: source not stated.
The mark [11] stands for this setting: ADP-Glo assay, mean ± standard deviation, n = 3 replicates, read-out: IC50 against PLK1.
Where [12] appears, read: ADP-Glo assay, read-out: IC50 against PLK1 (bound stated in text).
Setting [13] is: IC50 with 90% confidence interval, read-out: 90% CI of IC50 against PLK1.
Setting [14] is: IC50 with 95% confidence interval, read-out: 95% CI of IC50 against PLK1.
Setting [15] is: IC50 with 99% confidence interval, read-out: 99% CI of IC50 against PLK1.

T1 sequence (P53350 whole entry): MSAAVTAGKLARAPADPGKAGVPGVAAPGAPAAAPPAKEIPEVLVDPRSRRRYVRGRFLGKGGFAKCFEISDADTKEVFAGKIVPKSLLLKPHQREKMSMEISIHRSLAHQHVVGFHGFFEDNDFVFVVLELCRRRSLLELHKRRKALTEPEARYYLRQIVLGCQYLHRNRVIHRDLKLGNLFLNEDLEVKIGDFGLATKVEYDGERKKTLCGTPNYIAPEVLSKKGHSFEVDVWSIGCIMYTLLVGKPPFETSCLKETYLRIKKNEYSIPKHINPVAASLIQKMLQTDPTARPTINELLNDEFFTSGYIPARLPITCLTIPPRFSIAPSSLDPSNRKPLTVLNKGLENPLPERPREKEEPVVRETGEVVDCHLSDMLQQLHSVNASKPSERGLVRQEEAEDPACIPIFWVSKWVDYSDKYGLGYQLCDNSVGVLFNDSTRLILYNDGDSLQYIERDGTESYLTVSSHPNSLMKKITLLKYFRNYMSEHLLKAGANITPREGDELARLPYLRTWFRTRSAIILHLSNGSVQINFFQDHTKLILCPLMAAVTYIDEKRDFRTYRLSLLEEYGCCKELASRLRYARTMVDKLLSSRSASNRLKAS
T2 sequence (Q9NYY3 whole entry): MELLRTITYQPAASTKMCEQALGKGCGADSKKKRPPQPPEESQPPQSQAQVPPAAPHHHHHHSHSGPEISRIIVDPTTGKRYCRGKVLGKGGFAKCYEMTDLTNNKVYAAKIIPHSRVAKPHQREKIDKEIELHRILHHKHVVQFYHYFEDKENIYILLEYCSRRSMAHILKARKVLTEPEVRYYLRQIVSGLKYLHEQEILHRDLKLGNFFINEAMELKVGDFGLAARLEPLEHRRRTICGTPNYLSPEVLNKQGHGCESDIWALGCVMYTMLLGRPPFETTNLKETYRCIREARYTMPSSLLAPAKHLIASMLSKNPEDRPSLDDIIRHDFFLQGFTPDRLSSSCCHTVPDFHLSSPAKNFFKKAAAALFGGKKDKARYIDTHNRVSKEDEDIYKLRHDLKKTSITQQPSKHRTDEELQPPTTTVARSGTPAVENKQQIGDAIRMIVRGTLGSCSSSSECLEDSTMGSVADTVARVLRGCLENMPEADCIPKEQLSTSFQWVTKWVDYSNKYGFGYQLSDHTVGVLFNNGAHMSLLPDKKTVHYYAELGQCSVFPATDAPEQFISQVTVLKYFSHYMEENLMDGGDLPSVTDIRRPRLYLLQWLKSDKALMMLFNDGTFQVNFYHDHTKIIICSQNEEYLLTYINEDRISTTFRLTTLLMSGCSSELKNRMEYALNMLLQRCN
Sequence of FAK kinase (Q05397 whole entry): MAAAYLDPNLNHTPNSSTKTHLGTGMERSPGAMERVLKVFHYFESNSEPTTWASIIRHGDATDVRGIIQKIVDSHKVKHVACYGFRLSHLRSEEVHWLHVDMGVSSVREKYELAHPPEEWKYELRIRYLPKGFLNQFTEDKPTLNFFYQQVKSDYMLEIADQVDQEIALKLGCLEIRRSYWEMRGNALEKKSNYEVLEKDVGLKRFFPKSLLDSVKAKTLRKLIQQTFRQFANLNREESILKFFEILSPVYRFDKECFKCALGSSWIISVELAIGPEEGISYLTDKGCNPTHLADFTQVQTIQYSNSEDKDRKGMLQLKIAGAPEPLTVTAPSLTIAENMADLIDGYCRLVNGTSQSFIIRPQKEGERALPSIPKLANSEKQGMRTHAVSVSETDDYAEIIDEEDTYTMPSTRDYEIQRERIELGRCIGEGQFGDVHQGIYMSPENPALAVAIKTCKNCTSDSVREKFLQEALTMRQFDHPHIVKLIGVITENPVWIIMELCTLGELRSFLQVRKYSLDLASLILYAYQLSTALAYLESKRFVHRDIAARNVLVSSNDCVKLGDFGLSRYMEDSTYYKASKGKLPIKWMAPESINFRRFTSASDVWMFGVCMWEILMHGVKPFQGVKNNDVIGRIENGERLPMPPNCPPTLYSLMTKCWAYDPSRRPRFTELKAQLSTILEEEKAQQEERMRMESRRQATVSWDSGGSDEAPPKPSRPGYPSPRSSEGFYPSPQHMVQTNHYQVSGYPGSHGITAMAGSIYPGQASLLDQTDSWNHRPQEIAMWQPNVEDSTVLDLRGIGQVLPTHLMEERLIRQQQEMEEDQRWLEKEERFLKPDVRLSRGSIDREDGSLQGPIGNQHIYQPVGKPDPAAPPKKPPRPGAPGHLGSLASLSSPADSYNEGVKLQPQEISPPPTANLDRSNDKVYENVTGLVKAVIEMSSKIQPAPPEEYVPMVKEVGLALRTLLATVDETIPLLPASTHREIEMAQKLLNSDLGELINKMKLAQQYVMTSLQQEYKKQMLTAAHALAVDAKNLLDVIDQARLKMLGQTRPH
T3 sequence (Q9H4B4 whole entry): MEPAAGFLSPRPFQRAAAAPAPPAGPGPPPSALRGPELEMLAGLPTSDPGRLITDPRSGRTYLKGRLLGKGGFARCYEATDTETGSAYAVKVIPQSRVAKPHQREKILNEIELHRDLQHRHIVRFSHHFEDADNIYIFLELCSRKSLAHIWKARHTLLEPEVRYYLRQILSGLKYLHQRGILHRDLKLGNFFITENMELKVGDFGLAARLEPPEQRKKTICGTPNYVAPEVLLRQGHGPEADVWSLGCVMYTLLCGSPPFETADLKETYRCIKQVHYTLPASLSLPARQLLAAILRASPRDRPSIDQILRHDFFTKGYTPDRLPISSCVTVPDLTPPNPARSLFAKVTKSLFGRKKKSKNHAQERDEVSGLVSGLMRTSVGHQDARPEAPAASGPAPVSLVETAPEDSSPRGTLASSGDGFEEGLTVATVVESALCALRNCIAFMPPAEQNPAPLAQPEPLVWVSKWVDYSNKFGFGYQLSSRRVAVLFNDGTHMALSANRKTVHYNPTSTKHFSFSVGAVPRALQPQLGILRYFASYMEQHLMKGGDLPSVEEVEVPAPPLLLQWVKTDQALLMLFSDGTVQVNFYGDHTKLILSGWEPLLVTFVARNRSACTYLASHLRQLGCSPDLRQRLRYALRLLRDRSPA

As for `COc1cc2c(cc1Nc1nc(Nc3ccsc3C(N)=O)c3cc[nH]c3n1)N(C(=O)CN(C)C)CCC2` [GSK-2110236A], in series [1], the pXC50 is given as 7.6.

`COc1ccc(N2CCN(C)CC2)cc1Nc1ncc(C(F)(F)F)c(Oc2cccc3[nH]c(C(N)=O)cc23)n1` [IIP0942]: the IC50 is over 1000 nM in [2]; over 1000 nM in series [3]; 87.4 nM in [4]; 37.6 nM in [5] (setting [11]); under 1000 nM in series [5] (setting [12]); 37.6 ± 3.55 nM in [5] (setting [13]). Moreover, the IC50 in series [5] (setting [14]) is 37.6 ± 4.23 nM; in series [5] (setting [15]), 37.6 ± 5.56 nM. For the same compound, the “selectivity for PLK1 over FAK” value in series [4] was “over two-fold”. Also, the “selectivity for PLK1 compared to other Plks (in words)” value in series [5] is recorded as “excellent”.

With `COc1ccc(N2CCN(C)CC2)cc1Nc1ncc(C)c(Oc2cccc3cc(C(N)=O)sc23)n1` [IIP0943], the IC50 was over 1000 nM in series [2]; over 1000 nM in series [3]; 264 nM in [4]; 220 ± 3 nM in series [6] (Homo sapiens, HCT-116, CellTiter-Glo, mean ± standard deviation, n = 3 replicates, read-out: IC50 of cell proliferation inhibition, HCT116); 5.1 nM in [5] (setting [11]); under 1000 nM in series [5] (setting [12]). Further, the IC50 in series [5] (setting [13]) was 5.06 ± 1.64 nM; in series [5] (setting [14]), 5.06 ± 1.96 nM; in [5] (setting [15]), 5.06 ± 2.57 nM. Also, the “selectivity for PLK1 over FAK” value in series [4] was “over 50 fold”. Moreover, the “inhibitory activity in HCT116 cell proliferation (in words)” value in series [6] (HCT116 cell line) is recorded as “submicromolar”. For the same compound, the “half-life compared to Onvansertib (in words)” value in series [7] is listed as “prolonged half-life”. Also, the “oral bioavailability compared to Onvansertib” value in series [7] (ratio to Onvansertib) was “over two-fold”. Besides, the “selectivity for PLK1 compared to other Plks (in words)” value in series [5] is “high and excellent”.

With `COc1ccc(N2CCN(C)CC2)cc1Nc1ncc2ccn(-c3ccccc3-c3nc(C)no3)c2n1` [IIP0944], the IC50 in series [5] (setting [11]) is over 10000 nM.

With `COc1ccc(N2CCN(C)CC2)cc1Nc1ncc(C)c(Oc2ccccc2-n2ccnn2)n1` [IIP0945], the IC50 in series [5] (setting [11]) is 927 ± 129 nM; in series [5] (setting [12]) it was under 1000 nM; in series [5] (setting [13]), 928 ± 122 nM; in series [5] (setting [14]) it was 928 ± 146 nM; in [5] (setting [15]) it was 928 ± 192 nM.

Take `Cc1cc(Oc2ccc(C#N)cc2)nc(NCc2ccccc2)n1` [PubChem CID 1927680]: the pXC50 in series [1] is reported as 5.6.

For `CCS(=O)(=O)c1ccc2oc(Nc3ccc(C(C)C)cc3)nc2c1` [PubChem CID 2462953], in series [1], the pXC50 is reported as 5.6.

For the compound `CC[C@@H]1C(=O)N(C)c2cnc(Nc3ccc(C(=O)N[C@H]4CC[C@H](N5CCN(CC6CC6)CC5)CC4)cc3OC)nc2N1C(C)C` [Volasertib], the “enzymatic activity, in-house experiments” value in series [8] was 0.30 nM. The “selectivity compared to Onvansertib (in words)” value in series [9] (PLK1 vs PLK2 and PLK3) was “much worse selectivity”. The “activity against PLK2 (in words)” value in series [9] (source not stated) is “low nanomolar”. In addition, in [10], the “activity against PLK3 (in words)” value is on record as “low nanomolar”.
